The source of these data is patent US10894043B2, “Pharmaceutical composition” (Kyowa Kirin Co., Ltd., priority 2016, dated 2021).

Experiment [1] relates to laser-induced choroidal neovascularization model of a cynomolgus monkey. In words: Test Example 8: laser-induced choroidal neovascularization model of cynomolgus monkey, incidence of grade 4 by fluorescein fundus angiography. The experiment is classed as in vivo. The note with it: n = 6. On the procedure: Twenty-one days before the start of drug administration, both the eyes of each animal (all cases) were irradiated with laser to prepare animal models. Drops of a mydriatic agent were placed in the animal eyes to be irradiated. After confirmation of mydriasis, a mixed solution of ketamine hydrochloride (50 mg/mL) and an aqueous xylazine solution (20 mg/mL) [7:1 (v/v)] was intramuscularly administered (0.2 mL/kg or 10 mg/kg) to each animal. An appropriate amount of a special aid for contact lens placement to the cornea (Scopisol Solution for Eye) was added dropwise to an eyepiece of a retinal laser lens. The retinal laser lens was pressure-bonded to the eyes to be irradiated, and a yellow spot was confirmed. After the confirmation of a yellow spot, 8 sites around the yellow spot excluding the central pit were irradiated with green laser (wavelength: 532 nm, irradiation spot size: 80 μm, irradiation time: 0.1 sec, output: 1000 mW) using a multicolor laser photocoagulator (MC-500, Nidek Co., Ltd.).
According to the test configuration shown in Table 46, a vehicle, the nanoparticle composition of the present invention prepared according to Example 1, and the solution composition obtained in Comparative Example 2 were administered four times a day by ocular instillation for 35 days to the animal. Aflibercept (EYLEA(Registered Trademark) solution for intravitreal injection, Bayer Corp.) was intravitreally injected (once) to the animal.
Ophthalmoscopic examination was carried out during the acclimatization period (day −1) and during the administration period (administration days 7, 14, 21, 28 and 34). Macroscopic examination and light reflex examination were carried out using a portable slit lamp (SL-15, Kowa Co., Ltd.). Drops of a mydriatic agent were placed in the animal eyes. After confirmation of mydriasis, ketamine hydrochloride (50 mg/mL) was intramuscularly administered (0.2 mL/kg or 10 mg/kg) to each animal. The anterior segment of the eye and the ocular media were examined using a portable slit lamp, while the eyegrounds were examined using a head-type binocular indirect ophthalmoscope (IO-aSmall Pupil, Neitz Instruments Co., Ltd.). The eyegrounds were photographed using a fundus camera (VX-10a, Kowa Co., Ltd.) in all cases.
Fluorescein fundus angiography was carried out during the acclimatization period (day −1) and during the administration period (administration days 7, 14, 21, 28 and 34). For examination, a contrast medium (Fluorescite Intravenous Injection 500 mg, Alcon Japan Ltd.) was administered (0.1 mL/kg or 0.1 mL/s) from the cephalic vein of the forearm under mydriasis and anesthesia of the macroscopic examination and the ophthalmoscopic examination. Approximately 1, 3, and 5 minutes after the contrast medium administration, photographs were taken using a fundus camera. Choroidal neovascular grading was carried out on an irradiation spot basis. The fluorescein fundus angiographic images were observed and graded on an irradiation spot basis according to the criteria of Table 47.
The incidences of grades 1 to 4 of each eye at each point in time of examination were each calculated according to the following expression: Incidence of grade (%)=The number of irradiation spots/8×100

Experiment [2] relates to laser-induced choroidal neovascularization model of a rat. Briefly: Test Example 7: anti-angiogenic effect on laser-induced choroidal neovascularization model of rat. The note with it: 14 days after laser irradiation, ocular instillation twice a day 5 μL/eye (aflibercept: intravitreal 5 μL/eye once), n=12 or 13, * p<0.05 vs vehicle. The experiment is classed as in vivo, Brown Norway rat. How it is done:
The mydriasis of the eyeballs of each male Brown Norway rat (n=12 or 13 for each group) was caused with mydriatic eye drops for examination. A ketamine hydrochloride/xylazine hydrochloride (7:1, v/v) mixed solution was intramuscularly administered (1 mL/kg) to the femur for general anesthesia. Then, the right eyeground was observed using a slit lamp, and 8 sites in the retina were irradiated with laser (wavelength: 532 nm, spot size: 80 μm, irradiation time: 0.05 sec, output: 120 mW) using a multicolor laser photocoagulator to prepare laser-induced choroidal neovascularization model animals.
A vehicle of Example 1 or the nanoparticle composition of the present invention obtained in each of Examples 1 and 2 was administered twice a day by ocular instillation (5 μL/eye, 6 hr:18 hr interval) to each model animal from immediately after the laser irradiation to 14 days after the laser irradiation. […]
A choroidal neovascular site was photographed using a confocal microscope (Nikon ECLIPSE TE 2000-U). For choroidal neovascular evaluation, an area (unit: pixel) that contained a newly formed blood vessel and was at the inner side relative to the highest raised portion was calculated using ImageJ (National Institutes of Health). […]

In the case of Aflibercept [Aflibercept (EYLEA)], the “Incidence of grade 4” value in experiment [1] (administration day 7, mean) was determined as 4.2%; in experiment [1] (administration day 14, mean), 4.2%; in experiment [1] (administration day 21, mean) it was 4.2%; in experiment [1] (administration day 28, mean), 4.2%; in experiment [1] (administration day 34, mean), 4.2%; in experiment [1] (day −1 (acclimatization period, before administration), mean) it was 43.8%. Also, the “choroidal neovascularization area, mean” value in experiment [2] is recorded as 102931.7* pixel.
